Data: patent US9110082B2, “Methods for the identification and treatment of patients sensitive to anti IGF-1R inhibition therapy” (MERCK SHARP & DOHME CORP., priority 2009, dated 2015)

Key:
NSCLC cell lines = assay: Anchorage independent growth (soft agar colony formation) assay in a panel of NSCLC cell lines; format: cell-based, human
Experimental: (§1) All NSCLC cell lines were obtained from ATCC and maintained in 10% fetal bovine serum, FBS (Hyclone) containing media (DMEM or RPMI; Invitrogen Inc) supplemented with pen-strep (Invitrogen) at 37° C. according to the instructions from ATCC.
Soft agar assays were conducted in 96 well glass bottom plates (MATRICAL). Cells were seeded at a concentration of 3,000-9,000 cells per WELL in 100 μl RPMI 1640 (INVITROGEN) supplemented with 14% FBS and 0.3% (w/v) […] Agarose (Lonza Rockland, Inc) on top of a bottom layer of consisting of the same culture media supplemented with 0.8% agarose. […] Cells were incubated for 7-14 days before staining overnight with LAVA CELL(Active Motif). Colonies were quantified using an ISOCYTE laser scanning cytometer.

Colo699 cell line = assay: Anchorage independent growth (soft agar) assay, Colo699; format: cell-based, human; conditions: LKB1-high cell line; IGF-1 over-expression
Experimental: as §1
Soft agar assays were conducted in 96 well glass bottom plates (MATRICAL). Cells were seeded at a concentration of 3,000-9,000 cells per WELL in 100 μl RPMI 1640 (INVITROGEN) supplemented with 14% FBS and 0.3% (w/v) […] Agarose (Lonza Rockland, Inc) on top of a bottom layer of consisting of the same culture media supplemented with 0.8% agarose. Compounds were added in 100μl of culture media supplemented after agarose had solidified. Cells were incubated for 7-14 days before staining overnight with LAVA CELL(Active Motif). Colonies were quantified using an ISOCYTE laser scanning cytometer.

[1] = tested on: NSCLC cell lines expressing high levels of IGF-1R (NCI-H2122, A549, NCI-H460); assay: Xenograft growth assessment, NSCLC models with high IGF-1R; format: in vivo, nu/nu mice; conditions: NCI-H2122, A549, NCI-H460 xenografts; as compared to erlotinib
Experimental: (§2) When tumors reached a size of ˜300 mm3 (Length*Width*Width*0.5), mice were randomized into treatment groups. […] Tumor weight was determined at termination. […] Mice were sacrificed 24 hr after the final dose.

[2] = tested on: xenograft models with low levels of IGF-1R expression (SKMES & NCI-H520); assay: Xenograft growth assessment, NSCLC models with low IGF-1R; format: in vivo, nu/nu mice; conditions: SKMES & NCI-H520 xenografts
Experimental: as §2

22 NSCLC cell lines = conditions: growth inhibition assay; cited from earlier work

Row | Substance | sensitivity (anchorage independent growth inhibition) of NSCLC cell lines expressing high levels of IGF-1R (NSCLC cell lines; 26 NSCLC cell lines, MK-0646 10 ug/ml, erlotinib 1 uM, IGF-1R high cell lines) | sensitivity in IGF-1R high cell lines expressing low levels of LKB1 (NSCLC cell lines; IGF-1R and LKB1 protein by RPPA) | MK-0646 sensitivity in LKB1-low cell lines (NSCLC cell lines; LKB1 protein not detectable by western blot (LKB1-low; n=11)) | sensitivity of Colo699 cell line (Colo699 cell line) | xenograft sensitivity [1] | xenograft sensitivity [2] | sensitivity of NSCLC cell lines to R1507 (22 NSCLC cell lines)
1 | MK-0646: humanized antibody characterized as binding IGF-1R as well as the IR/IGF-1 hybrid receptor; described in U.S. Pat. No. 7,241,444 | more sensitive | enriched | significantly enriched | very sensitive | significant sensitivity | did not show sensitivity | –
2 | R1507: fully human IgG1 monoclonal antibody directed against the extracellular portion of the human IGF-1R | – | – | – | – | – | – | none of the lines displayed “high sensitivity”
